Data taken from patent US7407934B2, “Methods for regulating postprandial blood glucose” (Amylin Pharmaceuticals, Inc., priority 1993, dated 2008).
Positions of bridges follow the written chain, without caps; N, C: chain ends. Residues, ends and D or L forms follow the SMILES beside them.

Assays:
[1] = system: insulin-stimulated glycogen synthesis in soleus muscle; experiment: Soleus muscle assay (inhibition of insulin-stimulated glycogen synthesis); format: cell-based, rat
Description: Concentrations of peptide dissolved in carrier-free buffers are determined by quantitative amino acid analysis, as described therein. The ability of compounds to act as agonists in this assay is determined by measuring EC50 values. […] Similar results were obtained with other agonist compounds listed above.

[2] = system: glucose absorption from the small intestine; experiment: Glucose absorption from duodenum / perfused small bowel in anesthetized rats; format: in vivo, rat
From the text: Because the studies involved anesthetized rather than conscious rats, they are not considered in analyzing gastric motility, e.g., rate of emptying of stomach contents into the duodenum. However, the studies indicate that absorption of glucose from the duodenum into the blood was not delayed by amylin. […] In anesthetized rats, a segment of small bowel, still connected to the animal via its blood supply, was exteriorized and cannulae inserted so that the small bowel could be perfused with glucosed solutions of controlled composition. The animals were cannulated also via an artery (for blood sampling) and via a vein (for infusion or amylin, insulin and glucose). The lumen was perfused with a tritium-labelled glucose solution. The passage of glucose from the lumen of the gut into the rat was measured by the appearance of the tritium label in the plasma. The supposition that such appearance of tritium in the plasma was indeed measuring glucose uptake from the gut was tested by administration of the glucose transport blocker, phloridzin. […] To ensure that the glucose gradient between the gut lumen and plasma remained constant, during amylin infusions, plasma glucose was “clamped” by an infusion of glucose that was varied in response to changes in plasma glucose.

[3] = Oral glucose tolerance test in dogs during amylin infusion (Example 1); format: in vivo, dog
Description: Mongrel dogs (9 males, 12-17 kg wt. range) were used for this study. All animals were fasted overnight prior to each study. Each animal served as its own control for all protocols. Animals were equilibrated for 30-60 minutes prior to the start of each protocol.
25% glucose (1 gm/kg) was administered by mouth at t=0 minutes. […] Samples for insulin, glucose and lactate were obtained at 15 minutes intervals from t=−45 to t=180 minutes.

[4] = rats, rabbits, humans with Paget's disease; cited from earlier work
[5] = system: plasma renin activity; conditions: intact rats, given subcutaneously
From the text: This is important because lowered blood pressure is a strong stimulus to renin release.

[6] = cited from earlier work
[7] = system: gastric emptying; experiment: Gastric emptying of Phenol Red methylcellulose gel after gavage (Example 5); format: in vivo, rat; conditions: for ED50 for suppression of gastric emptying: diabetic BB rats fasted 6 hours; for ED50 for change in gastric emptying: normal HSD rats fasted 20 hours
Description: When BB rats were confirmed as being diabetic by glycosuria on at least 2 days, they were treated with daily s.c. injections of ultralente recombinant human insulin (Humulin-U, Eli Lilly, Indianapolis). Insulin therapy was aimed at maintaining glucose but minimizing ketones in the urine, in order to avoid hypoglycemic deaths. In fact, glycosuria was present in 88% of measurements and ketonuria in 52%. The average duration of diabetes was 53±5 days, and daily insulin requirements were 4.7±0.3 units. All animals were housed at […] in a 12:12 hour light:dark cycle (experiments being performed during the light cycle) and were fed and watered ad libitum (Diet LM-485, Teklad, Madison, Wis.).
The determination of gastric emptying by the method described below has usually been performed after a fast of ˜20 hours to ensure that the stomach contained no chyme that would interfere with spectrophotomertric absorbance measurements. However, diabetic rats treated with Ultralente insulin could not be fasted for 20 hours. […] Such animals were therefore fasted for only 6 hours before measurement of gastric emptying. Non-diabetic rates were deprived of food for either 6 or 20 hours prior to experimentation. We have note that even non-diabetic BB rats have elevated glycated hemoglobin concentrations, possibly indicating subclinical insulitis. Both non-diabetic Harlan Sprague Dawley rats and non-diabetic BB rats animals were therefor use in comparisons with diabetic rats. Thus there were 5 treatment groups:
Twenty minutes after gavage, rats were anesthetized using 5% halothane, the stomach exposed and clamped at the pyloric and lower esophageal spincters using artery forceps, removed and opened into an alkaline solution which was made up to a fixed volume. Stomach content was derived from the intensity of the phenol red in the alkaline solution, measured by absorbance at a wavelength of 560 nm. In most experiments, the stomach was clear. In other experiments, particulate gastric contents were centrifuged to clear the solution for absorbance measurements. Where the diluted gastric contents remained turbid, the spectroscopic absorbance due to Phenol Red was derived as the difference between that present in alkaline vs acidified diluent. In separate experiments on 7 rats, the stomach and small intestine were both excised and opened into an alkaline solution. The quantity of phenol red that could be recovered from the upper gastrointestinal tract within 20 minutes of gavage was 89±4%. To account for a maximal dye recovery of less than 100%, stomach contents remaining after 20 min were expressed as a fraction of the gastric contents recovered from control rats sacrificed immediately after gavage in the same experiment.
Pairwise comparisons were performed using one-way analysis of variance and the Student-Newman-Keuls multiple comparisons test (Instat v2.0, GraphPad Software, San Diego) using P<0.05 as the level of significance.

[8] = Plasma amylin concentration after subcutaneous rat amylin (immuno-enzymometric assay); format: in vivo; conditions: sc, 1 μg, Peak plasma amylin concentration, 1 μg s.c., 20 min
Description: The plasma from 250 μL samples collected at 10 min intervals was separated and frozen at −20° C. for analysis by a 2-site immuno-enzymometric assay developed in-house.
To perform the immunoassay, black microtiter plates (Dynatech, Chantilly, Va.) were coated with the antibody F024-4.4 [Phelps JL, Blase E, Koda JE, unpublished] by overnight incubation at 4° C. with 20 μg antibody per mL in 50 mM carbonate at pH 9.6. Plates were washed with 0.05 M Tris/0.15 M sodium chloride/0.02% sodium azide/0.1% Tween 20 (TBS/Tween), and blocked with 1.0% nonfat dry milk powder in the same carbonate buffer for one hour at room temperature. Samples were thawed on ice, and diluted in 4% BSA/200 mg/dl bovine cholesterol supertrate (Miles Pentex reagents, Miles Laboratories, Kankakee, Ill.) if necessary. Samples or standards were added to the coated and blocked plates and incubated for one hours at room temperature. After washing, the F025-27 detection antibody conjugated to alkaline phosphatase was added. […] Bound enzyme was detected by incubation of the plates with the fluorescent substrate 4-methylumbelliferyl phosphate at 50 ug/ml in 1M diethanolamine/0.5 mM MgCl, pH 9.8 for 40 minutes at room temperature. The fluorescent signal was measured with a Dynatech Microfluor plate reader, and data analyzed on Multicalc software (Wallac, Gaithersburg, Md.). […]

| SMILES | EC50 [1] [nM] | Absorption of glucose from the duodenum into the blood ([2]; amylin infusion 0.35 nm/kg/min, glucose 1 g/kg) | Rate of transit of labelled glucose from small bowel lumen into plasma ([2]; perfused exteriorized small bowel segment) | Plasma glucose after oral glucose load ([3]; amylin infusion 50, 100 and 300 pmol/kg/min, glucose 1 gm/kg by mouth) | Effects on plasma lactate ([3]; oral glucose load) | Lowering of plasma calcium [4] | Plasma renin activity [5] | Plasma glucose after injection ([6]; prolonged increase from about 6) [mM] | Plasma lactate after injection ([6]; rise from about 0.5, i.v. and s.c.) [mM] | ED50 of inhibition of gastric emptying ([7]; both normal and diabetic rats (summary)) [µg] | ED50 for suppression of gastric emptying ([7]; s.c.) [nmol/gk] | ED50 for suppression of gastric emptying ([7]; s.c., ±0.18 log units) [µg] | Dye recoverable from stomach 20 min after gavage ([7]; diabetic rats, 10 μg s.c. (P=0.14)) | Dose restoring gastric emptying in a diabetic rat to the rate of normal rats not administered amylin ([7]; estimated from fitted curves of FIG. 14) [µg] | Plasma concentrations 50% effective in inhibiting gastric emptying ([7]; inferred from plasma profile after 1 μg s.c.) | ED50 for change in gastric emptying ([7]; s.c.) | ED50 for change in gastric emptying ([7]; s.c. 5 min before gavage, ±0.19 log units) [µg] | Dye recoverable from stomach 20 min after gavage ([7]; normal HSD rats, 1 μg s.c. (P=0.22)) | Effect on gastric emptying (in words) ([7]; s.c. 5 min before gavage, 0.01-100 μg) | Cmax [8] [nM] |
| --- | --- | --- | --- | --- | --- | --- | --- | --- | --- | --- | --- | --- | --- | --- | --- | --- | --- | --- | --- | --- |
| CC[C@H](C)[C@H](NC(=O)[C@H](C)NC(=O)CNC(=O)[C@H](Cc1ccccc1)NC(=O)[C@H](CC(N)=O)NC(=O)[C@H](CC(N)=O)NC(=O)[C@H](CO)NC(=O)[C@H](CO)NC(=O)[C@H](Cc1c[nH]cn1)NC(=O)[C@@H](NC(=O)[C@H](CC(C)C)NC(=O)[C@H](Cc1ccccc1)NC(=O)[C@H](CC(N)=O)NC(=O)[C@H](C)NC(=O)[C@H](CC(C)C)NC(=O)[C@H](CCCNC(=N)N)NC(=O)[C@H](CCC(N)=O)NC(=O)[C@@H](NC(=O)[C@H](C)NC(=O)[C@@H]1CCCCNC(=O)C[C@H](NC(=O)[C@@H](N)CCCCN)C(=O)N[C@@H](CC(N)=O)C(=O)N[C@@H]([C@@H](C)O)C(=O)N[C@@H](C)C(=O)N[C@@H]([C@@H](C)O)C(=O)N1)[C@@H](C)O)C(C)C)C(=O)N[C@@H](CC(C)C)C(=O)N[C@@H](CO)C(=O)N[C@@H](CO)C(=O)N[C@H](C(=O)N[C@@H](CC(N)=O)C(=O)N[C@H](C(=O)NCC(=O)N[C@@H](CO)C(=O)N[C@@H](CC(N)=O)C(=O)N[C@H](C(=O)N[C@@H](Cc1ccc(O)cc1)C(N)=O)[C@@H](C)O)C(C)C)[C@@H](C)O [^2,7Cyclo-[^2Asp, ^7Lys]-h-Amylin, ^2,7Cyclo-[^2Asp,^7Lys]-h-Amylin] (H-KDNTATKATQRLANFLVHSSNNFGAILSSTNVGSNTY-NH2; lactam 2-7; N-terminus and C-terminus assumed) | 6.62 |  |  |  |  |  |  |  |  |  |  |  |  |  |  |  |  |  |  |  |
| CC(C)C[C@H](NC(=O)[C@H](CC(N)=O)NC(=O)[C@H](CC(N)=O)NC(=O)[C@H](CO)NC(=O)[C@H](CO)NC(=O)[C@H](CCCNC(=N)N)NC(=O)[C@@H](NC(=O)[C@H](CC(C)C)NC(=O)[C@H](Cc1ccccc1)NC(=O)[C@H](CC(N)=O)NC(=O)[C@H](C)NC(=O)[C@H](CC(C)C)NC(=O)[C@H](CCCNC(=N)N)NC(=O)[C@H](CCC(N)=O)NC(=O)[C@@H](NC(=O)[C@H](C)NC(=O)[C@@H]1CSSC[C@H](NC(=O)[C@@H](N)CCCCN)C(=O)N[C@@H](CC(N)=O)C(=O)N[C@@H]([C@@H](C)O)C(=O)N[C@@H](C)C(=O)N[C@@H]([C@@H](C)O)C(=O)N1)[C@@H](C)O)C(C)C)C(=O)NCC(=O)N1CCC[C@H]1C(=O)N[C@H](C(=O)N[C@@H](CC(C)C)C(=O)N1CCC[C@H]1C(=O)N1CCC[C@H]1C(=O)N[C@H](C(=O)N[C@@H](CC(N)=O)C(=O)N[C@H](C(=O)NCC(=O)N[C@@H](CO)C(=O)N[C@@H](CC(N)=O)C(=O)N[C@H](C(=O)N[C@@H](Cc1ccc(O)cc1)C(N)=O)[C@@H](C)O)C(C)C)[C@@H](C)O)C(C)C [amylin] |  | not delayed | no effect | reduced both the rate of rise in plasma glucose as well as the peak plasma glucose | unremarkable | up to 20% | markedly increases | ~11 | ~1.5 | ~1 | 2.3 | 2.2 | the same as that recoverable immediately after gavage | ~2 | less than 74 pM | 0.60 nmole amylin/kg body weight | 0.43 | the same as that recoverable immediately after gavage | dose dependent suppression of gastric emptying | 0.076 |
